Patent publication US12247011B2, “Selective inhibitors of NLRP3 inflammasome” (NodThera Limited, priority 2017, dated 2025)

The compounds below were run on IL-1β release upon NLRP3 activation in peripheral blood mononuclear cells (PBMC) (assay: PBMC IC50 Determination Assay). Conditions: Homo sapiens; LPS-primed PBMC, 30 min compound, stimulated with ATP (5 mM) or nigericin (10 μM) for 1 h; IL-1β ELISA; read-out: PBMC IC50.
Type: cell-based
Experimental: PBMC IC50 Determination Assay
The compounds of the present disclosure were tested for their inhibitory activity against IL-1β release upon NLRP3 activation in peripheral blood mononuclear cells (PBMC).
Isolated cells were seeded into the wells of a 96-well plate and incubated for 3 h with lipopolysaccharide (LPS). Following medium exchange, the compounds of the present disclosure were added (a single compound per well) and the cells were incubated for 30 min. Next, the cells were stimulated either with ATP (5 mM) or nigericin (10 μM) for 1 h and the cell culture media from the wells were collected for further analysis.
The release of IL-1β into the media was determined by a quantitative detection of IL-1β in the media using an IL-1β enzyme-linked immunosorbent assay (ELISA) Ready-SET-Go!, eBioscience cat. […] Subsequently, plates were blocked with blocking buffer for 1 h at room temperature (rt) and after washing with a buffer (PBS with 0.05% Tween-20) incubated with protein standard and culture media. […] Plates were washed and incubated with HRP-streptavidin for 30 min at rt and washed again. The signal was developed after addition of 3,3,5,5-tetramethylbenzidine-peroxidase (TMB) until colour appeared and the reaction was stopped by 2 M H2SO4. A microplate spectrophotometer (BioTek) was used to detect signals with 450 nm. The detection range of IL-1β ELISA was 2-150 ng/ml.

Structure (SMILES) | IC50 [nM]
CCOC(=O)C(Cn1cccn1)OC(=O)Nc1c(C)csc1C (centres unmarked) [Compound 99, Ethyl 2-{[(2,4-dimethylthiophen-3-yl)carbamoyl]oxy}-3-(1H-pyrazol-1-yl)propanoate] | 100 to 1000
CC(C)OC(=O)C(Cc1ncccn1)OC(=O)Nc1c(F)cccc1Cl (centres unmarked) [Compound 123, Propan-2-yl 2-{[(2-chloro-6-fluorophenyl)carbamoyl]oxy}-3-(pyrimidin-2-yl)propanoate] | 100 to 1000
CCOC(=O)COC(=O)Nc1ccccc1C#N [Compound 11, Ethyl 2-{[(2-cyanophenyl)carbamoyl]oxy}acetate] | 1000 to 10000
CCOC(=O)C(Cn1cccn1)OC(=O)Nc1c(F)cccc1F (centres unmarked) [Compound 44] | 100 to 1000
CCOC(=O)C(Cn1ccnc1C)OC(=O)Nc1c2c(cc3c1CCC3)CCC2 (centres unmarked) [Compound 84, Ethyl 2-{[(1,2,3,5,6,7-hexahydro-s-indacen-4-yl)carbamoyl]oxy}-3-(2-methyl-1H-imidazol-1-yl)propanoate] | 1000 to 10000
CC(C)OC(=O)[C@@H](Cn1cnc(C#N)n1)OC(=O)Nc1c2c(cc3c1CCC3)CCC2 [Compound 126, Propan-2-yl (2R)-3-(3-cyano-1H-1,2,4-triazol-1-yl)-2-{[(1,2,3,5,6,7-hexahydro-s-indacen-4-yl)carbamoyl]oxy}propanoate] | 10 to 100
Cc1nccc(CC(OC(=O)Nc2c3c(cc4c2CCC4)CCC3)C(=O)OC(C)C)n1 (centres unmarked) [Compound 120, Propan-2-yl 2-{[(1,2,3,5,6,7-hexahydro-s-indacen-4-yl)carbamoyl]oxy}-3-(2-methylpyrimidin-4-yl)propanoate] | 10 to 100
CCOC(=O)COC(=O)Nc1cccc2c1OC(C)(C)C2 [Compound 5, Ethyl 2-{[(2,2-dimethyl-2,3-dihydro-1-benzofuran-7-yl)carbamoyl]oxy}acetate] | > 10000
CCOC(=O)C(Cn1cccn1)OC(=O)Nc1c(C)cccc1C(C)C (centres unmarked) [Compound 74, Ethyl 2-({[2-methyl-6-(propan-2-yl)phenyl]carbamoyl}oxy)-3-(1H-pyrazol-1-yl)propanoate] | 100 to 1000
O=C(Nc1c2c(cc3c1CCC3)CCC2)O[C@H](Cn1cccn1)C(=O)OCc1ccccc1 [Compound 64, Benzyl (2R)-2-{[(1,2,3,5,6,7-hexahydro-s-indacen-4-yl)carbamoyl]oxy}-3-(1H-pyrazol-1-yl)propanoate] | 100 to 1000
CCOC(=O)C(Cn1cccn1)OC(=O)Nc1c2c(cc3c1OCC3)OCC2 (centres unmarked) [Compound 100, Ethyl 2-[({4,10-dioxatricyclo[7.3.0.0^3,7]dodeca-1,3(7),8-trien-2-yl}carbamoyl)oxy]-3-(1H-pyrazol-1-yl)propanoate] | 1000 to 10000
COC[C@@H](OC(=O)Nc1c2c(cc3c1CCC3)CCC2)C(=O)O [Compound 69, (2R)-2-{[(1,2,3,5,6,7-hexahydro-s-indacen-4-yl)carbamoyl]oxy}-3-methoxypropanoic acid] | 100 to 1000
O=C(O)COC(=O)Nc1c2c(cc3c1CCC3)CCC2 [Compound 27, 2-{[(1,2,3,5,6,7-Hexahydro-s-indacen-4-yl)carbamoyl]oxy}acetic acid] | 1000 to 10000
CCOC(=O)[C@@H](Cn1ccc(C#N)n1)OC(=O)Nc1c2c(cc3c1CCC3)CCC2 [Compound 96, Ethyl (2R)-3-(3-cyano-1H-pyrazol-1-yl)-2-{[(1,2,3,5,6,7-hexahydro-s-indacen-4-yl)carbamoyl]oxy}propanoate] | 100 to 1000
CCOC(=O)C(Cn1cccn1)OC(=O)Nc1c(C)cccc1F (centres unmarked) [Compound 49, Ethyl 2-{[(2-fluoro-6-methylphenyl)carbamoyl]oxy}-3-(1H-pyrazol-1-yl)propanoate] | 100 to 1000
CCOC(=O)C(Cn1cccn1)OC(=O)Nc1c(C#N)cccc1CC (centres unmarked) [Compound 58, Ethyl 2-{[(2-cyano-6-ethylphenyl)carbamoyl]oxy}-3-(1H-pyrazol-1-yl)propanoate] | 1000 to 10000
CCOC(=O)C(Cn1cccn1)OC(=O)Nc1c(CC)cccc1CC (centres unmarked) [Compound 48, Ethyl 2-{[(2,6-diethylphenyl)carbamoyl]oxy}-3-(1H-pyrazol-1-yl)propanoate] | 100 to 1000
O=C(Nc1c2c(cc3c1CCC3)CCC2)O[C@H](Cn1cncn1)C(=O)O [Compound 114, (2R)-2-{[(1,2,3,5,6,7-hexahydro-s-indacen-4-yl)carbamoyl]oxy}-3-(1H-1,2,4-triazol-1-yl)propanoic acid] | 100 to 1000
CCOC(=O)C(Cn1cc(OC)cn1)OC(=O)Nc1c2c(cc3c1CCC3)CCC2 (centres unmarked) [Compound 92, Ethyl 2-{[(1,2,3,5,6,7-hexahydro-s-indacen-4-yl)carbamoyl]oxy}-3-(4-methoxy-1H-pyrazol-1-yl)propanoate] | 100 to 1000

Structure (SMILES) | IC50 [nM]
CC(C)OC(=O)COC(=O)Nc1c2c(cc3c1CCC3)CCC2 [Compound 20, Propan-2-yl 2-{[(1,2,3,5,6,7-hexahydro-s-indacen-4-yl)carbamoyl]oxy}acetate] | 100 to 1000
CCOC(=O)C(Cn1cccn1)OC(=O)NC1CCCCCC1 (centres unmarked) [Compound 56, Ethyl 2-[(cycloheptylcarbamoyl)oxy]-3-(1H-pyrazol-1-yl)propanoate] | > 10000
CCOC(=O)COC(=O)Nc1c(Cl)cccc1Cl [Compound 3, Ethyl 2-{[(2,6-dichlorophenyl)carbamoyl]oxy}acetate] | 100 to 1000
CCOC(=O)C(Cn1cccn1)OC(=O)NC1CCCC1 (centres unmarked) [Compound 54, Ethyl 2-[(cyclopentylcarbamoyl)oxy]-3-(1H-pyrazol-1-yl)propanoate] | 1000 to 10000
CCOC(=O)COC(=O)Nc1c(CC)cccc1CC [Compound 9, Ethyl 2-{[(2,6-diethylphenyl)carbamoyl]oxy}acetate] | 100 to 1000
O=C(Nc1c2c(cc3c1CCC3)CCC2)O[C@H](Cc1ncccn1)C(=O)O [Compound 106, (2R)-2-{[(1,2,3,5,6,7-hexahydro-s-indacen-4-yl)carbamoyl]oxy}-3-(pyrimidin-2-yl)propanoic acid] | 100 to 1000
CCOC(=O)C(Cn1cccn1)OC(=O)Nc1c(Cl)cccc1CC (centres unmarked) [Compound 85, Ethyl 2-{[(2-chloro-6-ethylphenyl)carbamoyl]oxy}-3-(1H-pyrazol-1-yl)propanoate] | 10 to 100
CCOC(=O)[C@@H](Cn1cnc(C#N)c1)OC(=O)Nc1c2c(cc3c1CCC3)CCC2 [Compound 89, Ethyl (2R)-3-(4-cyano-1H-imidazol-1-yl)-2-{[(1,2,3,5,6,7-hexahydro-s-indacen-4-yl)carbamoyl]oxy}propanoate] | 100 to 1000
CCOC(=O)[C@@H](CCc1ccccc1)OC(=O)Nc1c2c(cc3c1CCC3)CCC2 [Compound 30, Ethyl (2R)-2-{[(1,2,3,5,6,7-hexahydro-s-indacen-4-yl)carbamoyl]oxy}-4-phenylbutanoate] | 100 to 1000
CCOC(=O)[C@@H](COCCOC)OC(=O)Nc1c2c(cc3c1CCC3)CCC2 [Compound 101, Ethyl (2R)-2-{[(1,2,3,5,6,7-hexahydro-indacen-4-yl)carbamoyl]oxy}-3-(2-methoxyethoxy)propanoate] | 100 to 1000
CCOC(=O)COC(=O)Nc1c(F)cccc1F [Compound 2, Ethyl 2-{[(2,6-difluorophenyl)carbamoyl]oxy}acetate] | 1000 to 10000
CCOC(=O)C(Cn1cccn1)OC(=O)Nc1c(C)cccc1Cl (centres unmarked) [Compound 51, Ethyl 2-{[(2-chloro-6-methylphenyl)carbamoyl]oxy}-3-(1H-pyrazol-1-yl)propanoate] | 1000 to 10000
Cc1cnc(CC(OC(=O)Nc2c3c(cc4c2CCC4)CCC3)C(=O)OC(C)C)cn1 (centres unmarked) [Compound 121, Propan-2-yl 2-{[(1,2,3,5,6,7-hexahydro-s-indacen-4-yl)carbamoyl]oxy}-3-(5-methylpyrazin-2-yl)propanoate] | 10 to 100
CCOC(=O)C(Cc1cccnn1)OC(=O)Nc1c2c(cc3c1CCC3)CCC2 (centres unmarked) [Compound 62, Ethyl 2-{[(1,2,3,5,6,7-hexahydro-s-indacen-4-yl)carbamoyl]oxy}-3-(pyridazin-3-yl)propanoate] | 100 to 1000
CCOC(=O)C(Cc1cccc(-n2cccn2)c1)OC(=O)Nc1c2c(cc3c1CCC3)CCC2 (centres unmarked) [Compound 42, Ethyl 2-{[(1,2,3,5,6,7-hexahydro-s-indacen-4-yl)carbamoyl]oxy}-3-[3-(1H-pyrazol-1-yl)phenyl]propanoate] | 100 to 1000
CCOC(=O)[C@@H](Cc1cccc(-n2cccn2)c1)OC(=O)Nc1c2c(cc3c1CCC3)CCC2 [Compound 43, Ethyl (2R)-2-{[(1,2,3,5,6,7-hexahydro-s-indacen-4-yl)carbamoyl]oxy}-3-[3-(1H-pyrazol-1-yl)phenyl]propanoate] | 100 to 1000
CCOC(=O)C(Cn1cccn1)OC(=O)Nc1cccc(C(F)(F)F)c1Cl (centres unmarked) [Compound 70, Ethyl 2-({[2-chloro-3-(trifluoromethyl)phenyl]carbamoyl}oxy)-3-(1H-pyrazol-1-yl)propanoate] | 1000 to 10000
CCOC(=O)C(COC)OC(=O)Nc1c2c(cc3c1CCC3)CCC2 (centres unmarked) [Compound 6, Ethyl 2-{[(1,2,3,5,6,7-hexahydro-s-indacen-4-yl)carbamoyl]oxy}-3-methoxypropanoate] | 10 to 100
O=C(Nc1c2c(cc3c1CCC3)CCC2)O[C@H](Cn1cccn1)C(=O)O [Compound 61, (2R)-2-{[(1,2,3,5,6,7-hexahydro-s-indacen-4-yl)carbamoyl]oxy}-3-(1H-pyrazol-1-yl)propanoic acid] | 100 to 1000
